Data published in US5861424A, “Composition and method for treating cancer” (priority 1995, dated 1999).
Where two headings read alike, the source gives them in different places.

Assays:
[1] = tested on: human colon carcinoma cell line CX-1; experiment: Colony formation assay, human colon carcinoma CX-1; assay type: cell-based; conditions: Table III; for Selectivity (ratio of IC50 for CV-1 and IC50 for CX-1): CV-1/CX-1
Protocol: (§2) Human colon carcinoma cell line CX-1 or normal monkey kidney epithelial cell line CV-1 was chosen as representatives of cancer cells and normal cells, respectively. […] CX-1 cells (2,000 cells/well) and CV-1 cells (1,000 cells/well) were plated in 24-well plastic culture plates. […] The control received culture media only. Cells were treated with compounds of General Formulas (1) to (6) at 37° C. for 24 hours. After rinsing with fresh culture medium three times, the cells were further incubated at 37° C. for 7 to 10 days. Cell colonies were fixed and stained with 2% crystal violet in 70% ethanol for 10 minutes and rinsed in water. […] The selectivity is defined as the ratio of IC50 for CV-1 and IC50 for CX-1.

[2] = tested on: human bladder carcinoma EJ cell line; experiment: Colony formation assay, human bladder carcinoma EJ; assay type: cell-based; conditions: Table IV; for Selectivity (CV-1 IC50 / EJ IC50): CV-1/EJ
Excerpt: (§1) The control received culture media only.

[3] = tested on: human melanoma LOX cell line; experiment: Colony formation assay, human melanoma LOX; assay type: cell-based; conditions: Table V; for LOX (IC50): 24 h treatment; for Selectivity (CV-1 IC50 / LOX IC50): CV-1/LOX
Excerpt: as §1

[4] = tested on: human breast carcinoma MCF-7 cell line; experiment: Colony formation assay, human breast carcinoma MCF-7; assay type: cell-based; conditions: Table VI; for Selectivity (CV-1 IC50 / MCF-7 IC50): CV-1/MCF-7
Excerpt: as §1
The Selectivity values, MCF-7 values and CV-1 values for compounds of the General Formulas (1) to (6) used in the present invention are shown in Table VI below.

[5] = tested on: human pancreatic carcinoma CRL 1420 cell line; experiment: Colony formation assay, human pancreatic carcinoma CRL 1420; assay type: cell-based; conditions: Table VII; for Selectivity (CV-1 IC50 / CRL-1420 IC50): CV-1/CRL-1420
Excerpt: as §1
The Selectivity values, CRL 1420 values and CV-1 values for compounds of the General Formulas (1) to (6) used in the present invention are shown in Table VII below.

human melanoma LOX = experiment: Survival of nude mice implanted with human melanoma LOX; assay type: in vivo, human melanoma in male athymic Swiss nu/nu mouse; conditions: Mus musculus, ip, 24 h, 10 mg/kg, i.p. on day 1, 2, 3, 6, 9; read-out: T/C (survival)
Protocol: LOX, a human melanoma cell line, grown subcutaneously in nude mice was excised, trypsinized to yield a single cell suspension using a metal grid with a […]. Red blood cells were lysed by incubation with 0.17 molar ammonium chloride at 4° C. for 20 minutes. Five million viable trypan blue negative cells made up in 0.1 ml of Dulbecco modified Eagles' medium (DME) were injected into the peritoneal cavity of a male athymic Swiss nu/nu mouse. The control group and each treatment group consisted of 5 to 10 mice. Treatment was commenced the following day by intraperitoneal injection.
Ten control mice received 0.25 ml of 2% dextrose on those days the treated groups were injected with the compounds of this invention. The compounds of the General Formulas. (1) to (6) used in this invention which were tested are listed in Table VIII below and the results obtained are shown in Table VIII and FIG. 1-6 of the accompanying drawings. T/C is the ratio, expressed as a percentage of the mean survival age of the treated group to the mean survival age of the untreated control group.

[6] = tested on: normal monkey kidney epithelial cell line CV-1; experiment: Colony formation assay, normal monkey kidney epithelial cells CV-1; conditions: for IC50: Primates, Epithelial cell;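 as to all read-outs here: colonies visualized by crystal violet staining, incubation at 37 °C, IC50 relative to untreated wells given culture medium alone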
Protocol: as §2

[7] = tested on: human colon carcinoma CX-1; experiment: Anti-human colon carcinoma CX-1 activity in nude mice, tumor inhibition; assay type: in vivo, human colon carcinoma in Swiss nu/nu mice; conditions: Mus musculus, ip, 24 h
Excerpt: Human colon carcinoma cell line CX-1 has been chosen by the National Cancer Institute as a mode for cancer drug screening (NCI Protocol 3C2H2). It was established in culture from the surgical explant of the primary colon adenocarcinoma of a person with no previous chemotherapy. The cultured CX-1 cells, upon subcutaneous injection, can grow readily in nude mice as a moderately- to well-differentiated human colon carcinoma. CEA is expressed as expected for differentiated colon carcinoma cells. Abundant keratin, consistent with epithelial origin, is present. Increased uptake and prolonged retention of delocalized lipophilic cations are observed.
Swiss nu/nu mice obtained from Taconic Farm were housed in a pathogen-free environment. Tumors subcutaneously passaged in nude mice were excised under sterile conditions and converted to a single cell suspension using a metal grid with a 0.4 mm mesh. Red blood cells were lysed by incubation with 0.17M ammonium chloride at 4° C. for 20 minutes. Cells were scored for viability with trypan blue. Viable CX-1 cells (2.5 million) made up in 0.1 ml of cell culture medium were injected subcutaneously into each nude mouse. The mice were randomly allocated into a control group (five mice) and a treatment group (five mice per group). The drug treatment was commenced the next day. Doses and schedules were developed empirically and were based mainly on information on LD50 and LD10 obtained from preliminary toxicity studies. The control group received an equivalent volume of hydroxylpropyl-β-cyclodextrin-5% glucose solution.
The pharmaceutical compositions tested comprised solutions in 5% glucose subjected to sonication at concentrations of 1 mg/ml. Those compounds which were not completely dissolved by this procedure were dissolved in hydroxypropyl-β-cyclodextrin using the following method. Hydroxypropyl-β-cyclodextrin (45 g) was mixed with 100 ml of sterilized, double distilled water and stirred for four hours. Each of the compounds to be tested (20 mg) was mixed with 10 ml of hydroxypropyl-β-cyclodextrin solution and sonicated for 60 minutes in the dark. This solution was then diluted in 5% glucose to yield a final compound concentration of 0.5 mg/ml, and further sonicated for 60 minutes in the dark to assure that the compound was completely dissolved.
When the growth of tumors in the control group reached the exponential phase and the size of the tumor was palpable (usually 20 to 30 days after tumor implantation), the experiments were terminated. Tumors in each mouse were excised and weighed using an analytical balance. Total tumor weight in each group from five mice was calculated. Per cent tumor inhibition between the treated group and the control group was then calculated for each group.

[8] = 24 h treatment, colony count after 7 to 10 days
[9] = read-out: CV-1 (IC50), Table IV
[10] = read-out: CV-1 (IC50), Table VII
[11] = i.p. on day 1, 7**, 9** (**10 mg/kg)

SMILES: CCN1C(=CC=c2sc(=Cc3sc4c5ccccc5ccc4[n+]3C)n(CC)c2=O)Sc2ccc3ccccc3c21 [Compound 52]
- CX-1 (IC50) [1, 8]: 0.03 mg/L
- Selectivity (ratio of IC50 for CV-1 and IC50 for CX-1) [1]: > 667
- EJ (IC50) ([2]; 24 h treatment): 0.05 mg/L
- Selectivity (CV-1 IC50 / EJ IC50) [2]: > 400
- LOX (IC50) [3]: 0.08 mg/L
- Selectivity (CV-1 IC50 / LOX IC50) [3]: > 250
- MCF-7 (IC50) ([4]; 24 h treatment): 0.03 mg/L
- Selectivity (CV-1 IC50 / MCF-7 IC50) [4]: > 666
- CRL-1420 (IC50) ([5]; 24 h treatment): 0.06 mg/L
- Selectivity (CV-1 IC50 / CRL-1420 IC50) [5]: > 333
- response vs control in vivo at 10 mg/kg (human melanoma LOX): 168%
- CV-1 (IC50) ([6]; Table III, 24 h treatment, colony count after 7 to 10 days): > 20 mg/L
- CV-1 (IC50) ([6]; Table IV): > 20 mg/L
- CV-1 (IC50) ([6]; Table V): > 20 mg/L
- CV-1 (IC50) ([6]; Table VI): > 20 mg/L
- CV-1 (IC50) ([6]; Table VII): > 20 mg/L

SMILES: CCN1C(=CC=c2sc(=Cc3sc4c5ccccc5ccc4[n+]3CC)n(CC)c2=O)Sc2ccc3ccccc3c21 [Compound 54]
- CX-1 (IC50) [1, 8]: 0.04 mg/L
- Selectivity (ratio of IC50 for CV-1 and IC50 for CX-1) [1]: 500
- EJ (IC50) ([2]; 24 h treatment): 0.04 mg/L
- Selectivity (CV-1 IC50 / EJ IC50) [2]: 500
- LOX (IC50) [3]: 0.07 mg/L
- Selectivity (CV-1 IC50 / LOX IC50) [3]: 286
- IC50 ([4]; Homo sapiens, MCF7, 24 h, 24 h treatment, read-out: MCF-7 (IC50)): 0.05 mg/L
- Selectivity (CV-1 IC50 / MCF-7 IC50) [4]: 400
- CRL-1420 (IC50) ([5]; 24 h treatment): 0.05 mg/L
- Selectivity (CV-1 IC50 / CRL-1420 IC50) [5]: 400
- inhibition in vivo at 5 mg/kg ([7]; 5 mg/kg, i.p. on day 1, 5, 9, 13): 42.6%
- IC50 [6, 9]: 20 mg/L
- IC50 ([6]; read-out: CV-1 (IC50), Table V): 20 mg/L
- IC50 ([6]; read-out: CV-1 (IC50), Table VI): 20 mg/L
- IC50 [6, 10]: 20 mg/L

SMILES: CCn1c(=Cc2sc3c4ccccc4ccc3[n+]2CC)sc(=CC=C2Sc3ccc4ccccc4c3N2C)c1=O [Compound 55]
- inhibition in vivo at 20 mg/kg ([7]; i.p. on day 1, 4, 7, 11, 15, 18): 55.3%

SMILES: CCn1c(=Cc2sc3c4ccccc4ccc3[n+]2CC)sc(=CC=C2Sc3ccc4ccccc4c3N2C)c1=O [Compound 56]
- CX-1 (IC50) [1, 8]: 0.1 mg/L
- Selectivity (ratio of IC50 for CV-1 and IC50 for CX-1) [1]: 200
- IC50 ([2]; Homo sapiens, EJ, 24 h, 24 h treatment, read-out: EJ (IC50)): 0.09 mg/L
- Selectivity (CV-1 IC50 / EJ IC50) [2]: 222
- CRL-1420 (IC50) ([5]; 24 h treatment): < 0.046 mg/L
- Selectivity (CV-1 IC50 / CRL-1420 IC50) [5]: > 435
- inhibition in vivo at 20 mg/kg ([7]; i.p. on day 1, 5, 8, 11): 82.6%
- IC50 [6, 9]: 20 mg/L

SMILES: CCN1CCSC1=CC=c1sc(=Cc2cc[n+](CC)c3ccccc23)n(CC)c1=O [Compound 146]
- inhibition in vivo at 20 mg/kg [7, 11]: 59.3%

SMILES: C=CCn1c(=Cc2cc[n+](CC)c3ccccc23)sc(=CC=C2C=Cc3ccccc3N2CC)c1=O [Compound 249]
- IC50 ([1]; Homo sapiens, Colon carcinoma cell, 24 h treatment, colony count after 7 to 10 days, read-out: CX-1 (IC50)): 0.05 mg/L
- Selectivity (ratio of IC50 for CV-1 and IC50 for CX-1) [1]: 100
- IC50 ([5]; Homo sapiens, 24 h, 24 h treatment): 0.045 mg/L
- Selectivity (CV-1 IC50 / CRL-1420 IC50) [5]: 111
- inhibition in vivo at 20 mg/kg ([7]; i.p. on day 1, 5, 7, 9): 41.1%
- IC50 ([6]; read-out: CV-1 (IC50), Table III, 24 h treatment, colony count after 7 to 10 days): 5 mg/L
- IC50 [6, 10]: 5 mg/L

SMILES: C=CCn1c(=Cc2cc[n+](CC)c3ccccc23)sc(=CC=C2C=CN(CC)c3ccccc32)c1=O [Compound 304]
- inhibition in vivo at 20 mg/kg [7, 11]: 65.9%
